Experiments:
bedstraw = assay: Test B pre/postemergence bedstraw; assay type: in vivo, Galium aparine
How it was run: (§1)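 Herbicidal effect was estimated by eye on a ten-point control scale after plants spent twelve to sixteen days in a greenhouse following soil or foliar treatment. Foliar sprays targeted plants at one to four leaves; all doses were formulated in a non-phytotoxic solvent with surfactant.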

blackgrass = assay: Test B pre/postemergence blackgrass; assay type: in vivo, Alopecurus myosuroides
How it was run: as §1

surinam grass = assay: Test B pre/postemergence surinam grass; assay type: in vivo, Brachiaria decumbens
How it was run: as §1

cocklebur = assay: Test B pre/postemergence cocklebur; assay type: in vivo, Xanthium strumarium
How it was run: as §1

corn = assay: Test B pre/postemergence corn; assay type: in vivo, Zea mays
How it was run: as §1

crabgrass = assay: Test B pre/postemergence crabgrass; assay type: in vivo, Digitaria sanguinalis
How it was run: as §1

morningglory = assay: Test B pre/postemergence morningglory; assay type: in vivo, Ipomoea hederacea
How it was run: as §1

pigweed = assay: Test B pre/postemergence pigweed; assay type: in vivo, Amaranthus retroflexus
How it was run: as §1

rape = assay: Test B pre/postemergence rape; assay type: in vivo, Brassica napus
How it was run: as §1

sugar beet = assay: Test B pre/postemergence sugar beet; assay type: in vivo, Beta vulgaris
How it was run: as §1

velvetleaf = assay: Test B pre/postemergence velvetleaf; assay type: in vivo, Abutilon theophrasti
How it was run: as §1

wheat = assay: Test B pre/postemergence wheat; assay type: in vivo, Triticum aestivum
How it was run: as §1

wild oat = assay: Test B pre/postemergence wild oat; assay type: in vivo, Avena fatua
How it was run: as §1

purple nutsedge = assay: Test B pre/postemergence purple nutsedge; assay type: in vivo, Cyperus rotundus
How it was run: as §1

smallflower flatsedge = assay: Test B flood test smallflower flatsedge; assay type: in vivo, Cyperus difformis
How it was run: (§2)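 Plants were grown to the 2-leaf stage before treatment with test chemical, then held in a greenhouse for twelve to sixteen days. Injury was visually rated against untreated controls on a 0–10 scale, where 0 is no effect and 10 is complete control.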

duck salad = assay: Test B flood test duck salad; assay type: in vivo, Heteranthera limosa
How it was run: as §2

[1] = Postemergence, Rate 62 g/ha, scale 0 to 10, 0 is no effect, 10 is complete control
[2] = Postemergence, Rate 125 g/ha, scale of 0 to 10 where 0 is no effect and 10 is complete control
[3] = Preemergence, Rate 62 g/ha, scale 0 to 10 (0 no effect, 10 complete control)
[4] = Preemergence, Rate 125 g/ha, scale of 0 to 10 where 0 is no effect and 10 is complete control
[5] = Preemergence, Rate 250 g/ha, scale 0 to 10 (0 no effect, 10 complete control)
[6] = Preemergence, Rate 500 g/ha, scale of 0 to 10 where 0 is no effect and 10 is complete control
[7] = Postemergence, Rate 250 g/ha, scale of 0 to 10, 0 is no effect, 10 is complete control
[8] = Postemergence, Rate 500 g/ha, scale of 0 to 10 where 0 is no effect and 10 is complete control
[9] = Rate 62 g/ha, flood test species, Pre-emergence, visual evaluation after twelve to sixteen days
[10] = Rate 125 g/ha, under heading Pre-emergence, flood test species, visual evaluation after twelve to sixteen days
[11] = Rate 250 g/ha, Pre-emergence (flood test species), scale 0 to 10, 0 is no effect, 10 is complete control
[12] = Rate 500 g/ha, Pre-emergence section of Table B, 0 to 10 scale (0 no effect, 10 complete control)

Compound: CCOC(=O)CC(C(=O)OCC)n1c(=O)on(C(=O)N(c2ccc(F)cc2)C(C)C)c1=O (centres unmarked) [Compound 615]
- Plant response rating, Bedstraw (bedstraw; [1]): 0
- Plant response rating, Bedstraw (bedstraw; [2]): 0
- Bedstraw plant response rating (bedstraw; [3]): 0
- Bedstraw plant response rating (bedstraw; [4]): 0
- Plant response rating, Bedstraw (bedstraw; [5]): 0
- Bedstraw plant response rating (bedstraw; [6]): 0
- Plant response rating, Blackgrass (blackgrass; [1]): 0
- Plant response rating, Blackgrass (blackgrass; [2]): 0
- Blackgrass plant response rating (blackgrass; [7]): 0
- Plant response rating, Blackgrass (blackgrass; [8]): 0
- Blackgrass plant response rating (blackgrass; [3]): 0
- Blackgrass plant response rating (blackgrass; [4]): 0
- Plant response rating, Blackgrass (blackgrass; [5]): 0
- Blackgrass plant response rating (blackgrass; [6]): 4
- Plant response rating, B. signalgrass (surinam grass; [1]): 0
- Plant response rating, B. signalgrass (surinam grass; [2]): 0
- B. signalgrass plant response rating (surinam grass; [7]): 0
- Plant response rating, B. signalgrass (surinam grass; [8]): 0
- B. signalgrass plant response rating (surinam grass; [3]): 0
- B. signalgrass plant response rating (surinam grass; [4]): 0
- Plant response rating, B. signalgrass (surinam grass; [5]): 0
- B. signalgrass plant response rating (surinam grass; [6]): 0
- Plant response rating, Cocklebur (cocklebur; [1]): 0
- Plant response rating, Cocklebur (cocklebur; [2]): 0
- Cocklebur plant response rating (cocklebur; [7]): 0
- Plant response rating, Cocklebur (cocklebur; [8]): 0
- Cocklebur plant response rating (cocklebur; [3]): 0
- Cocklebur plant response rating (cocklebur; [4]): 0
- Plant response rating, Cocklebur (cocklebur; [5]): 0
- Plant response rating, Cocklebur (cocklebur; [6]): 0
- Plant response rating, Corn (corn; [1]): 0
- Plant response rating, Corn (corn; [2]): 0
- Corn plant response rating (corn; [7]): 0
- Plant response rating, Corn (corn; [8]): 0
- Corn plant response rating (corn; [3]): 0
- Corn plant response rating (corn; [4]): 0
- Plant response rating, Corn (corn; [5]): 0
- Plant response rating, Corn (corn; [6]): 0
- Plant response rating, Crabgrass (crabgrass; [1]): 0
- Plant response rating, Crabgrass (crabgrass; [2]): 0
- Crabgrass plant response rating (crabgrass; [7]): 4
- Crabgrass plant response rating (crabgrass; [3]): 0
- Crabgrass plant response rating (crabgrass; [4]): 0
- Plant response rating, Crabgrass (crabgrass; [5]): 0
- Plant response rating, Crabgrass (crabgrass; [6]): 0
- Plant response rating, Morningglory (morningglory; [1]): 0
- Plant response rating, Morningglory (morningglory; [2]): 1
- Morningglory plant response rating (morningglory; [7]): 1
- Plant response rating, Morningglory (morningglory; [8]): 1
- Morningglory plant response rating (morningglory; [3]): 0
- Morningglory plant response rating (morningglory; [4]): 0
- Plant response rating, Morningglory (morningglory; [5]): 0
- Plant response rating, Morningglory (morningglory; [6]): 0
- Plant response rating, Redroot pigweed (pigweed; [1]): 0
- Plant response rating, Redroot pigweed (pigweed; [2]): 0
- Redroot pigweed plant response rating (pigweed; [7]): 0
- Plant response rating, Redroot pigweed (pigweed; [8]): 0
- Redroot pigweed plant response rating (pigweed; [3]): 0
- Redroot pigweed plant response rating (pigweed; [4]): 0
- Plant response rating, Redroot pigweed (pigweed; [5]): 0
- Plant response rating, Redroot pigweed (pigweed; [6]): 4
- Plant response rating, Rape (rape; [1]): 0
- Plant response rating, Rape (rape; [2]): 0
- Rape plant response rating (rape; [7]): 0
- Plant response rating, Rape (rape; [8]): 0
- Rape plant response rating (rape; [3]): 0
- Rape plant response rating (rape; [4]): 0
- Plant response rating, Rape (rape; [5]): 0
- Plant response rating, Rape (rape; [6]): 0
- Plant response rating, Sugarbeets (sugar beet; [1]): 0
- Plant response rating, Sugarbeets (sugar beet; [2]): 0
- Sugarbeets plant response rating (sugar beet; [7]): 0
- Plant response rating, Sugarbeets (sugar beet; [8]): 0
- Sugarbeets plant response rating (sugar beet; [3]): 0
- Sugarbeets plant response rating (sugar beet; [4]): 0
- Plant response rating, Sugarbeets (sugar beet; [5]): 0
- Plant response rating, Sugarbeets (sugar beet; [6]): 6
- Plant response rating, Velvetleaf (velvetleaf; [1]): 0
- Plant response rating, Velvetleaf (velvetleaf; [2]): 0
- Velvetleaf plant response rating (velvetleaf; [7]): 0
- Plant response rating, Velvetleaf (velvetleaf; [8]): 0
- Velvetleaf plant response rating (velvetleaf; [3]): 0
- Velvetleaf plant response rating (velvetleaf; [4]): 0
- Plant response rating, Velvetleaf (velvetleaf; [5]): 0
- Plant response rating, Velvetleaf (velvetleaf; [6]): 0
- Plant response rating, Wheat (wheat; [1]): 0
- Plant response rating, Wheat (wheat; [2]): 0
- Wheat plant response rating (wheat; [7]): 0
- Plant response rating, Wheat (wheat; [8]): 0
- Wheat plant response rating (wheat; [3]): 0
- Wheat plant response rating (wheat; [4]): 0
- Plant response rating, Wheat (wheat; [5]): 0
- Plant response rating, Wheat (wheat; [6]): 0
- Plant response rating, Wild oats (wild oat; [1]): 0
- Plant response rating, Wild oats (wild oat; [2]): 0
- Wild oats plant response rating (wild oat; [7]): 0
- Plant response rating, Wild oats (wild oat; [8]): 0
- Wild oats plant response rating (wild oat; [3]): 0
- Wild oats plant response rating (wild oat; [4]): 0
- Plant response rating, Wild oats (wild oat; [5]): 0
- Plant response rating, Wild oats (wild oat; [6]): 0
- Plant response rating, Nutsedge (purple nutsedge; [1]): 0
- Plant response rating, Nutsedge (purple nutsedge; [2]): 0
- Nutsedge plant response rating (purple nutsedge; [7]): 0
- Nutsedge plant response rating (purple nutsedge; [3]): 0
- Nutsedge plant response rating (purple nutsedge; [4]): 0
- Plant response rating, Nutsedge (purple nutsedge; [5]): 0
- Plant response rating, Nutsedge (purple nutsedge; [6]): 0
- Plant response rating, S. Flatsedge (0 to 10 scale, 0 is no effect, 10 is complete control) (smallflower flatsedge; [9]): 0
- S. Flatsedge plant response rating (0 to 10 scale, 0 is no effect, 10 is complete control) (smallflower flatsedge; [10]): 0
- S. Flatsedge plant response rating (smallflower flatsedge; [11]): 0
- S. Flatsedge plant response rating (smallflower flatsedge; [12]): 0
- Plant response rating, Ducksalad (0 to 10 scale, 0 is no effect, 10 is complete control) (duck salad; [9]): 0
- Ducksalad plant response rating (0 to 10 scale, 0 is no effect, 10 is complete control) (duck salad; [10]): 0
- Ducksalad plant response rating (duck salad; [11]): 0
- Ducksalad plant response rating (duck salad; [12]): 0
